Drawing on PubChem BioAssay (NCI), this text covers TGI and GI50 for 13 compounds.

Some test systems named below: DLD-1 colon; HOP-18 NSCLC; LXFL 529 NSCLC; DMS 273 small cell lung; BT-549 breast; DU-145 prostate; MCF7 breast; MDA-MB-231 breast; MDA-MB-435; NCI/ADR-RES ovarian; T-47D breast.
Common to all, as to assay: growth of human tumour cells (NCI), 48 h

Each structure is given as a SMILES string. Where “and” joins values, the source holds several entries; their conditions need not be identical. Identical values can stand only once.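 48-hour exposure; five concentrations; linearly interpolated endpoints. GI50 marks 50% less growth. TGI is the concentration that stops growth completely.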

Regarding `Cc1cc(C)c(-c2noc(-c3ccc(Cl)cc3)c2C2=NCCN2)c(C)c1`, the TGI is 75.9 µM in the test on DLD-1 colon, more than 100 µM in the test with HOP-18 NSCLC and 44.5 µM with LXFL 529 NSCLC.

As for `CCC(C)CNC1=C(NC(C)=O)C(=O)c2ccccc2C1=O` (stereo not drawn), the TGI in the test on DLD-1 colon, with DMS 273 small cell lung and in the test on LXFL 529 NSCLC was more than 100 µM in each case.

On to `CC(C)=CCNc1ncnc2c1ncn2C1OC(COP(=O)(O)O)C(O)C1O` (stereo not drawn), for which the GI50 is 2.43 µM in the test with BT-549 breast; 1.35 µM with DU-145 prostate; 1.72 µM in the test with MCF7 breast; 1.85 µM in the test with MDA-MB-231 breast; 6.68 µM in the test with MDA-MB-435; 5.85 µM in the test on NCI/ADR-RES ovarian. In addition, the GI50 in the test with T-47D breast is 4.96 µM. The TGI with BT-549 breast was 6.81 µM; in the test on DU-145 prostate, 4.15 µM; with MCF7 breast, more than 91.3 µM; with MDA-MB-231 breast, 5.48 µM; in the test on MDA-MB-435, more than 100 µM; in the test on NCI/ADR-RES ovarian it was more than 100 µM. Moreover, the TGI in the test with T-47D breast was 25.4 µM.

Regarding `COC(=O)C1=C(O)C(C(=O)OC)[C@@]2(O)[C@@H](C(=O)OC)C(c3ccccc3C(F)(F)F)C[C@@H]1[C@@H]2C(=O)OC` (stereo partly drawn), the GI50 with BT-549 breast is 3.08 µM; with DU-145 prostate, 3.23 µM; in the test on MCF7 breast, 2.99 µM; in the test on MDA-MB-231 breast, 7.99 µM; in the test on MDA-MB-435, 2.06 µM; in the test with NCI/ADR-RES ovarian, 3.78 µM. Moreover, the GI50 in the test on T-47D breast was 0.737 µM. Also, the TGI was 11.9 µM with BT-549 breast; 10.9 µM in the test on DU-145 prostate; 12.1 µM with MCF7 breast; 22.4 µM in the test on MDA-MB-231 breast; 4.53 µM in the test on MDA-MB-435; 16.8 µM with NCI/ADR-RES ovarian. In the test on T-47D breast, the TGI is 5.98 µM.

Regarding `COc1cc(Oc2cnc3cc(N)cc(N)c3n2)cc(OC)c1OC`, the GI50 was 43.5 µM in the test on BT-549 breast; 62.3 µM with DU-145 prostate; 35.4 µM with MCF7 breast; 29.4 µM in the test with MDA-MB-231 breast; 24.3 µM with MDA-MB-435; 30.6 µM in the test with NCI/ADR-RES ovarian. Further, the GI50 in the test with T-47D breast was 33.5 µM. The TGI in the test with BT-549 breast was more than 100 µM; in the test with DU-145 prostate, more than 100 µM; with MCF7 breast, more than 100 µM; with MDA-MB-231 breast it was 95.8 µM; in the test with MDA-MB-435, 59.1 µM; with NCI/ADR-RES ovarian, more than 100 µM. Besides, the TGI in the test with T-47D breast is more than 100 µM.

`COc1ccc(-n2cc(-c3ccc(Cl)cc3)[nH]c2=S)cc1Cl`: the GI50 was 20.5 µM with BT-549 breast; 37.2 µM in the test on DU-145 prostate; 34.3 µM with MCF7 breast; 22.1 µM in the test with MDA-MB-231 breast; more than 100 µM with MDA-MB-435; 42.2 µM in the test on NCI/ADR-RES ovarian. Also, in the test with T-47D breast, the GI50 was 18.4 µM. The TGI in the test on BT-549 breast was 55 µM; in the test on DU-145 prostate it was more than 100 µM; in the test with MCF7 breast it was more than 100 µM; in the test with MDA-MB-231 breast, 82.2 µM; in the test on MDA-MB-435, more than 100 µM; in the test with NCI/ADR-RES ovarian it was more than 100 µM. For the same compound, the TGI with T-47D breast was more than 100 µM.

For `COc1ccc(C2CC(c3cccc(Nc4ccnc5cc(Cl)ccc45)c3)=NN2c2ccccc2)cc1` (stereo not drawn), the GI50 in the test with BT-549 breast is 7.42 µM; in the test on DU-145 prostate it was 14 µM; in the test on MCF7 breast, 1.52 µM; with MDA-MB-231 breast it was 1.31 µM; in the test with MDA-MB-435, 0.219 µM; in the test with NCI/ADR-RES ovarian, 1.51 µM. Further, in the test on T-47D breast, the GI50 was 0.171 µM. Moreover, the TGI with BT-549 breast was 39.2 µM; with DU-145 prostate it was more than 100 µM; in the test with MCF7 breast it was 27.4 µM; in the test with MDA-MB-231 breast it was 29.2 µM; in the test on MDA-MB-435, 2.92 µM; in the test with NCI/ADR-RES ovarian, 26.4 µM. Further, in the test with T-47D breast, the TGI was found to be 20 µM.

As for `O=C(O)/C=C/C(=O)Nc1cccc2c1-c1ccccc1C2=O`, the TGI was more than 100 µM in the test with BT-549 breast; more than 81.3 µM in the test on DU-145 prostate; more than 100 µM with MCF7 breast; 81.3 µM in the test with MDA-MB-231 breast; 9.14 µM with MDA-MB-435; more than 92.1 µM in the test with NCI/ADR-RES ovarian. This compound also had a TGI in the test with T-47D breast of more than 100 µM.

Turning to `O=C(NCCc1ccccc1)C(c1csc2ccccc12)N(C(=O)CCl)c1ccc(-c2cnco2)cc1` (stereo not drawn), the GI50 in the test on BT-549 breast is 0.228 µM; with DU-145 prostate, 0.461 µM; in the test on MCF7 breast, 1.43 µM; in the test with MDA-MB-231 breast, 0.226 µM; in the test on MDA-MB-435, 1.54 µM; in the test on NCI/ADR-RES ovarian, 0.114 µM. Moreover, the GI50 in the test with T-47D breast is 1.02 µM. Also, the TGI was 0.574 µM in the test with BT-549 breast; 2.3 µM in the test with DU-145 prostate; 3.26 µM with MCF7 breast; 1.36 µM in the test with MDA-MB-231 breast; 3.18 µM with MDA-MB-435; 1.17 µM in the test with NCI/ADR-RES ovarian. Also, the TGI in the test with T-47D breast stood at 2.89 µM.

`NC(N)=Nc1nc2cc(N)ccc2o1`: the TGI in the test with DLD-1 colon and with HOP-18 NSCLC was more than 100 µM in each case.

Consider `Cc1cc(C)c2nc(Nc3nc(C)c(C)c(=O)[nH]3)nc(C)c2c1`, for which the GI50 with BT-549 breast is 2.01 µM; in the test on DU-145 prostate, 3.8 µM; in the test on MCF7 breast it was 2.14 µM; in the test on MDA-MB-231 breast it was 2.99 µM; in the test on MDA-MB-435, 3.13 µM; in the test on NCI/ADR-RES ovarian, 4.12 µM. In the test with T-47D breast, the GI50 was 1.65 µM. The TGI turned out to be 8.48 µM in the test with BT-549 breast; 24.1 µM in the test on DU-145 prostate; 10.7 µM with MCF7 breast; 12.7 µM with MDA-MB-231 breast; 13.2 µM in the test with MDA-MB-435; 57.3 µM in the test with NCI/ADR-RES ovarian. Moreover, in the test with T-47D breast, the TGI amounted to 8.42 µM.

Regarding `Clc1cc(Cl)c2n[se]nc2c1`, the TGI with DMS 273 small cell lung and in the test with HOP-18 NSCLC was more than 100 µM throughout.

Take `O=c1cc(N2CCOCC2)oc2c(-c3ccccc3)cccc12`: the GI50 in the test on BT-549 breast was 1.79 µM; with DU-145 prostate it was 6.73 µM; in the test on MDA-MB-231 breast, 5.85 µM; with MDA-MB-435, 4.23 µM; in the test with NCI/ADR-RES ovarian it was 6.35 µM; in the test on T-47D breast, 3.03 µM. The TGI was > 19.8 µM and 76.2 µM in the test with BT-549 breast; more than 100 µM with DU-145 prostate; > 57 µM and 16.1 µM in the test on MCF7 breast; 97.3 µM and 19.6 µM with MDA-MB-231 breast; 31.1 µM and 37.2 µM in the test on MDA-MB-435; 85.2 µM and 24.3 µM in the test with NCI/ADR-RES ovarian. Also, the TGI with T-47D breast was 48.7 µM and 8.31 µM.
